From article PMC11212260, “Next-generation neuropeptide Y receptor small-molecule agonists inhibit mosquito-biting behavior” (Parasites & Vectors, 2024) come the findings set out here.

One assay has as its target Ae. aegypti NPYLR7 (Aedes aegypti, UniProt U5N1H5). Briefly: In vitro calcium (GCaMP6s) FLIPR assay in HEK293T cells transfected with NPYLR7. Format: cell-based. The settings on record: for activation at 100 µM: single replicate of the dose-response curve. How it is done:
The in vitro screening assay was adapted from, and carried out at HD Biosciences (HDB, Shanghai) as follows: HEK293T (Thermo Fisher Scientific) cells were grown in Dulbecco’s modified Eagle medium (DMEM) (high glucose, with glutamine), 10% fetal bovine serum, 1% penicillin–streptomycin (Pen/Strep), seeded in a 75 cm^2 flask, and incubated at 37 °C and 5% CO2. Cells were transiently transfected with 1 μg of each plasmid expressing GCaMP6s (Addgene […]) (Chen et al., 2013), mouse Gqα15 (Addgene #40753) (Offermanns and Simon, 1995) and Ae. aegypti NPYLR7 (Addgene #52392) (Duvall et al. 2019) using Lipofectamine 2000 (Invitrogen) in 4 ml of Opti-MEM (Invitrogen). This mixture was added to a plate after 20 min and incubated for 6–8 h. Cells were then trypsinized, resuspended in phenol-free media, and plated in a 384-well plate (Greiner Bio-One) at a density of 20,000 cells per 40 μl, and incubated overnight (37 °C, 5% CO2). Cells were imaged directly in phenol-free media. Plates were loaded into a Molecular Devices fluorescence imaging plate reader (FLIPR) with an excitation wavelength of 470–495 nm and an emitted wavelength of 515–575 nm. Plates were imaged every second for 5 min. After 30 s of baseline fluorescence recording, 10 μl of the test compound in reading buffer [Hank’s Balanced Salt Solution (Gibco) + 20 mM HEPES (Sigma-Aldrich)] was added. Concentrations tested ranged from 0 to 100 μM. Data were collected in raw fluorescence units (RFU).
Each test plate included replicates of 10 μM FMRFa3 (H‐Ala‐Gly‐Gln‐Gly‐Phe‐Met‐Arg‐Phe‐NH2), an Ae. aegypti neuropeptide agonist of NPYLR7 used to calculate the hundred percent effect (HPE). The zero percent effect (ZPE) control was calculated as a response to buffer alone. The Z′ factor was calculated for each plate by Z^′=1-3σHPE+3σZPE/|μHPE-μZPE| . Plates with Z′ < 0.5 were excluded from analysis. Raw fluorescence units (RFU) were converted to percent effect relative to the average of the ZPE and HPE. Percent effect = (sample luminescence − average ZPE)/(average HPE − average ZPE)×100. […] Each replicate was plotted as percent effect versus log[concentration], and replicates with maximal responses between 20 and 250% were used for EC50 calculations. Relative EC50 was calculated using an [Agonist] versus response–variable slope four-parameter model where Y=Bottom+(X^Hillslope)∗(Top-Bottom)/(X^HillSlope+EC50^HillSlope) . For compounds with multiple replicates, the relative EC50 of each replicate was averaged.

In assay [1] the test system is Aedes aegypti (Orlando strain) females. Briefly: Host-seeking screening assay (miniport olfactometer). Format: in vivo. As to conditions: fed 1 μM in saline, tested 48 h post-meal; for Attraction (relative to saline): per-compound value of Fig. 3C. On the procedure:
Groups of 60–150 females were placed in bucket cages with a diameter of 21.6 cm and height of 16.5 cm (VWR) and fasted with access to water for 24 h prior to feeding. Meals were delivered to females via Glytube membrane feeders as described previously. Meals consisted of 1.5 ml sheep blood (HemoStat Laboratories), saline (400 mM NaHCO3 + dih2O), or saline and test compound. Lyophilized compounds were stored at room temperature until use. High-concentration stocks (30 mM in 100% dimethyl sulfoxide [DMSO]) (Sigma-Aldrich) were stored at −20 °C and diluted in saline immediately prior to feeding. Once prepared, meals and glycerol heating elements were warmed in a 42 °C water bath for 15 min to provide warmth to attract mosquitos to feed. ATP (1 mM final concentration) and test compounds (1 μM final concentration) were added prior to placing the meal on top of the mesh on the cage containing female mosquitos. Females were allowed 15–20 min to feed to repletion. Abdominal engorgement was scored by eye and confirmed by weighing females to ensure full feeding (Data S1). […] Females were returned to their original cage with a diH2O wick for 48 h prior to behavioral testing. The lethality of each compound was measured by counting the number of dead females in each cage 24 h post-meal.
Miniport olfactometers were fabricated in-house as described previously. Information regarding design, construction, and use can be found at https://github.com/VosshallLab/Miniport-Construction. Miniport canisters consisted of a 6″ × 3″ × 3″ acrylic tube with a mesh screen to allow for air flow. Groups of 10–20 females were loaded into canisters 24 h post-meal. Females were left in canisters overnight to acclimate with two cotton balls soaked in diH20 to prevent desiccation. Behavior trials began 48 h post-meal. Canisters were randomly assigned to attraction traps 1–4 and given 5 min to acclimate. The stimulus end of the trap was connected to a flowmeter that supplied 5% CO2 at a rate of 30 ml/min. Thirty seconds of CO2 flow was supplied to activate females prior to opening the sliding door. Once opened, the sliding door gave females access to the attraction trap baited with a human-scented nylon stocking previously worn by the same experimenter for 8–10 h to collect body odor and stored in a plastic bag at −20 °C until use. After 5 min, the sliding door was closed and attraction was scored as mosquitoes in the attraction trap/total number of mosquitoes. For each experiment data were normalized to the matched average saline attraction from the same experiment (% attracted/average saline attraction). Any dead mosquitoes were excluded from the analysis. Non-fed females and blood-fed females served as environmental control groups while the saline-fed females served as the vehicle control each day. If non-fed or saline-fed females were less than 50% attracted or if blood-fed females were more than 20% attracted behavioral trials were halted and all data from that experimental day were discarded.

[2] abbreviates: EC50 of the individual assay date/plate (assay date), read-out: EC50.
Setting [3] is: Figure 1E Summary, third list (n = 39), read-out: Reported Metric (Summary list).
The mark [4] stands for this setting: HEK-293T, single replicate, normalised response.
[5] abbreviates: relative EC50, percent effect relative to 10 μM FMRFa3, read-out: EC50.
The mark [6] stands for this setting: sheet Figure 3C, unit inferred, read-out: EC50.
Setting [7] is: summary EC50 per compound (mean over assay dates), the unit is taken from the neighbouring EC50 (uM) column, read-out: Reported Metric.
Where [8] appears, read: Figure 1E Summary, second list (n = 48), read-out: Reported Metric (Summary list).

Read-outs that look alike come from different tables or passages of the source.

Ae. aegypti NPYLR7, sequence (U5N1H5 entry or part of it): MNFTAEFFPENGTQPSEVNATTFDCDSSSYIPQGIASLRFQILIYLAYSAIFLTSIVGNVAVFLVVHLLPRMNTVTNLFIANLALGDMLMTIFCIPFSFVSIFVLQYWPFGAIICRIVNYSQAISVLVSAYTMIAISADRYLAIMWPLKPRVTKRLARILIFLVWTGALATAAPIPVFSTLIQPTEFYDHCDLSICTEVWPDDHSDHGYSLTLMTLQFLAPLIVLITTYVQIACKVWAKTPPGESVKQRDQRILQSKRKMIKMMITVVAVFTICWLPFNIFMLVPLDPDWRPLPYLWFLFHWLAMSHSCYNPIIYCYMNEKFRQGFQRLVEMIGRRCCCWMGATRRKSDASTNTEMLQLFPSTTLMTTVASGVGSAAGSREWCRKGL

As to `CNc1nc(NC(=N)N)nc2cc(OCc3ccc(OC)cc3)ccc12` [TDI-014190], the EC50 at Ae. aegypti NPYLR7 (setting [2]), at Ae. aegypti NPYLR7 (setting [3]), at Ae. aegypti NPYLR7 (setting [5]), at Ae. aegypti NPYLR7 (setting [6]) and on Ae. aegypti NPYLR7 (setting [7]) was 0.0181 µM each time. Besides, the activation at 0.1372 µM at Ae. aegypti NPYLR7 (HEK-293T, 0.1372 uM, single replicate, normalised response) worked out at 46.8%. For the same compound, the activation at 1.2346 µM at Ae. aegypti NPYLR7 (setting [4]) was found to be 77.5%. For the same compound, the activation at 11.1111 µM on Ae. aegypti NPYLR7 (setting [4]) came to 69.9%. The activation at 33.3333 µM at Ae. aegypti NPYLR7 (setting [4]) was 92.1%. Also, the activation at 100 µM at Ae. aegypti NPYLR7 (HEK-293T, normalised response) amounted to 91.9%. Also, the “Attraction (relative to saline)” value in assay [1] worked out at 0.805.

As to `Cc1nc(NC(=N)N)nc2cc(OCc3cccnn3)ccc12` [TDI-014179], the EC50 at Ae. aegypti NPYLR7 (setting [2]), on Ae. aegypti NPYLR7 (setting [8]), at Ae. aegypti NPYLR7 (setting [5]), on Ae. aegypti NPYLR7 (setting [6]) and at Ae. aegypti NPYLR7 (setting [7]) was 39.3 µM in each case. Moreover, on Ae. aegypti NPYLR7 (setting [4]), the activation at 33.3333 µM was found to be 23.1%. The “Attraction (relative to saline)” value in assay [1] was determined as 0.865.

Consider `Cc1nc(NC(=N)N)nc2cc(OCC3CCCCC3)ccc12` [TDI-014169], for which the EC50 amounted to 4.43 µM on Ae. aegypti NPYLR7 (setting [2]); 4.43 µM on Ae. aegypti NPYLR7 (setting [8]); 4.44 µM at Ae. aegypti NPYLR7 (setting [5]); 4.43 µM at Ae. aegypti NPYLR7 (setting [6]); 4.43 µM at Ae. aegypti NPYLR7 (setting [7]). The activation at 3.7037 µM at Ae. aegypti NPYLR7 (setting [4]) came out at 42.2%. Moreover, on Ae. aegypti NPYLR7 (setting [4]), the activation at 11.1111 µM stood at 78.4%. Further, the activation at 33.3333 µM on Ae. aegypti NPYLR7 (setting [4]) is 94.5%. In addition, at Ae. aegypti NPYLR7 (HEK-293T, normalised response), the activation at 100 µM turned out to be 113%. Besides, the “Attraction (relative to saline)” value in assay [1] was determined as 1.025.

As to `Cc1nc(NC(=N)N)nc2cc(OCC(F)(F)F)ccc12` [TDI-014168], the EC50 on Ae. aegypti NPYLR7 (setting [2]), on Ae. aegypti NPYLR7 (setting [8]), at Ae. aegypti NPYLR7 (setting [5]), on Ae. aegypti NPYLR7 (setting [6]) and at Ae. aegypti NPYLR7 (setting [7]) was 4.26 µM in each case. The activation at 33.3333 µM on Ae. aegypti NPYLR7 (setting [4]) amounted to 80.4%. Further, the activation at 100 µM at Ae. aegypti NPYLR7 (HEK-293T, normalised response) was 74.2%. The “Host-seeking relative to saline (test compound % host-seeking/average matched saline % host-seeking)” value in assay [1] (individual replicates, listed as TDI-04168) stood at 1.07. Further, the “Attraction (relative to saline)” value in assay [1] is reported as 1.03.

In the case of `COc1ccc(COc2ccc3c(C)nc(NC(=N)N)nc3c2)cn1` [TDI-014173], the EC50 at Ae. aegypti NPYLR7 (setting [2]) was 1.32 µM. Moreover, the EC50 on Ae. aegypti NPYLR7 (setting [3]) came to 1.32 µM. At Ae. aegypti NPYLR7 (setting [4]), the activation at 0.4115 µM is 47.7%, the activation at 1.2346 µM is 53.6%, the activation at 3.7037 µM stood at 83.8% and the activation at 11.1111 µM turned out to be 74.1%. Further, the activation at 33.3333 µM at Ae. aegypti NPYLR7 (setting [4]) is 101%. For the same compound, the EC50 on Ae. aegypti NPYLR7 (setting [5]) was determined as 1.32 µM. Moreover, the EC50 on Ae. aegypti NPYLR7 (setting [6]) came to 1.32 µM. Besides, the EC50 on Ae. aegypti NPYLR7 (setting [7]) came out at 1.32 µM. Moreover, in assay [1], the “Attraction (relative to saline)” value turned out to be 0.88.

For `Cc1nc(NC(=N)N)nc2cc(OCc3ccc(S(C)(=O)=O)cc3)ccc12` [TDI-014182], the EC50 on Ae. aegypti NPYLR7 (setting [2]), on Ae. aegypti NPYLR7 (setting [3]), on Ae. aegypti NPYLR7 (setting [5]), on Ae. aegypti NPYLR7 (setting [6]) and at Ae. aegypti NPYLR7 (setting [7]) was 0.222 µM in each case. Besides, on Ae. aegypti NPYLR7 (setting [4]), the activation at 0.4115 µM stood at 32%. The activation at 1.2346 µM at Ae. aegypti NPYLR7 (setting [4]) worked out at 62.2%. Moreover, on Ae. aegypti NPYLR7 (setting [4]), the activation at 3.7037 µM came to 77.6%. Further, the activation at 11.1111 µM on Ae. aegypti NPYLR7 (setting [4]) was found to be 90.2%. Moreover, on Ae. aegypti NPYLR7 (setting [4]), the activation at 33.3333 µM came to 80.3%. Besides, the “Attraction (relative to saline)” value in assay [1] is listed as 0.9.
